Measured values reported in patent US12023390B2, “Isomerically pure 18F-labelled tetrahydrofolates” (MERCK PATENT GMBH, priority 2017, dated 2024).

How the values were obtained:
KB tumor-bearing mice = test: Biodistribution studies in KB tumor-bearing mice
Description: Biodistribution studies were performed 2 weeks after cell inoculation. The ^18F-folate radiotracers (˜5 MBq/mouse) were injected in a volume of 100 μL into a lateral tail vein. The animals were sacrificed at 30 min, 60 min and 90 min after administration of radiotracers. Selected tissues and organs were collected, weighed, and radioactivity was measured using a γ-counter. The results were listed as a percentage of the injected radioactivity per gram of tissue mass (% IA/g), using counts of a defined volume of the original injection solution measured at the same time resulting in decay corrected values.

RT16 (FR-α) = molecular target: T1, RT16 (FR-α) (Homo sapiens, UniProt P15328); test: Cell uptake and internalization in FR-α transfected CHO cells (RT16); type: cell-based
T1 construct: expressed in transfected cells; host or cells: CHO cells (RT16)
Description: (§1) The uptake and internalization of the oxidized (^18F-AzaFol) and reduced ^18F-folates (6S-isomer and 6R-isomer of ^18F-5-Me-Aza-THF) in D4 and RT16 cells which express the FR-α and FR-β, […] was studied. Both cell lines were kindly provided by Larry Matherly Wayne State University, Detroit, U.S.; Golani et al., J Med Chem, 2016, 59, 7856.
The internalized fraction of the radiotracers reached 8-10% after 1 h and increased slightly up to 9-12% after 3 h incubation.

[1] = Distribution coefficient (log D7.4), shake flask method; type: physicochemical; conditions: n-octanol / phosphate buffer pH 7.4, room temperature
Description: The samples were shaken for 15 min in an overhead shaker and centrifuged for 3 min at 5000 rpm to separate the two phases. Aliquots (50 μL) of both phases were added to Eppendorftubes and then, analyzed in a γ-counter (Wizard, PerkinElmer). The partition coefficient is expressed as the radio between the radioactivity concentrations (cpm/mL) of the n-octanol and the phosphate buffer phase. Values represent the mean±standard deviation of sextuples from two independent experiments.

D4 (FR-β) = molecular target: T2, D4 (FR-β) (Homo sapiens, UniProt P14207); test: Cell uptake and internalization in FR-β transfected CHO cells (D4); type: cell-based
T2 construct: expressed in transfected cells; host or cells: CHO cells (D4)
Description: as §1
When using D4 cells that express the FR-β, the uptake of ^18F-AzaFol and the 6S-isomer of the reduced radiotracer reached approximately 70% after 1 h incubation and 80% after 3 h incubation. The internalized fraction of ^18F-AzaFol and the 6S-isomer of the reduced version was 20% and 12%, respectively, after 1 h incubation. These numbers increased slightly when the incubation time was extended to 3 h. […] No change was observed after additional two hours of incubation.

FR-positive KB cells = test: Cell uptake and internalization using FR-positive KB cells; type: cell-based
Description: (§2) In order to investigate FR-specific cell uptake and internalization, cell uptake and internalization of 6R-[^18F]1 and 6S-[^18F]1 were carried out using FR-positive KB cells. Cell uptake increased constantly over time for both diastereoisomers resulting in an uptake of about 60% (calculated per 0.3 mg of protein) of total added radioactivity after 3 h of incubation at 37° C. (FIG. 22).

[2] = Metabolite studies / in vivo stability (radio-UPLC of blood plasma, liver, urine); design: species or system mice; conditions: samples taken p.i.
Description: as §2
The folate radiotracer 6S/6R-[^18F]5 (1:1 ratio, 53.7-52.3 MBq; 0.62-1.15 nmol) were intravenously injected into mice in order to determine the in vivo stability of the tracers. […] Ice-cold methanol containing 10 mg/mL 2-mercaptoethanol and 0.025% (v/v) ammonium hydroxide was added to the blood plasma, homogenized liver and urine in order to precipitate the proteins.^6 After centrifugation, the supernatants of the blood plasma, liver and urine samples were analyzed by radio-UPLC (FIG. 4).

FR-alpha = FR-alpha (Homo sapiens, UniProt P15328); test: Selectivity for FR-alpha versus oxidized folic acid derivative (summary statement)
Folate Receptor = Folate Receptor (Homo sapiens, UniProt P15328); conditions: cited from earlier work
[3] = KB tumor-bearing mice, 30 min p.i.
[4] = KB tumor-bearing mice, 30 min p.i., ratio
[5] = KB tumor-bearing mice, 60 min p.i.
[6] = KB tumor-bearing mice, 60 min p.i. & Folic Acid (100 μg 10 min prior)
[7] = KB tumor-bearing mice, 60 min p.i., ratio
[8] = KB tumor-bearing mice, 90 min p.i.
[9] = KB tumor-bearing mice, 90 min p.i., ratio
[10] = KB tumor-bearing mice, 90 min p.i., listed as 6R-form
[11] = KB tumor-bearing mice, 90 min p.i., listed as 6R-isomer

T2 sequence (P14207 17-230): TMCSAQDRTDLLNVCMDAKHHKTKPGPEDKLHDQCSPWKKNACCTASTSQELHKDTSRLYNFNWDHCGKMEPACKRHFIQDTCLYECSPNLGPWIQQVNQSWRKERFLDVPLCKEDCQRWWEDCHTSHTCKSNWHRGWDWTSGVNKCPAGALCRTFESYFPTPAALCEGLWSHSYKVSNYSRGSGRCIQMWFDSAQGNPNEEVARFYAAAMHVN
Folate Receptor, sequence (P15328 25-234): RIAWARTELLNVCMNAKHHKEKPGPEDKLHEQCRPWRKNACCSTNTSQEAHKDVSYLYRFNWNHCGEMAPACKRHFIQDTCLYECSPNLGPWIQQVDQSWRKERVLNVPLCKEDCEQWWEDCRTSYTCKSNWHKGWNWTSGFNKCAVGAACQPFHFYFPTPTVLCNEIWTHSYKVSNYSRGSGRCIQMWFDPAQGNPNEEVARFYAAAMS
FR-alpha, sequence (P15328 25-234, species assumed): as the sequence (P15328 25-234) above
T1 sequence (P15328 25-234): as above

6R-3′-aza-2′-[^18F]fluoro-5-MTHF [6R-[^18F]1]
Biodistribution: Blood (KB tumor-bearing mice; [3]): 3.13 ± 0.31 % IA/g | Biodistribution: Bone (KB tumor-bearing mice; [3]): 2.73 ± 0.14 % IA/g | Biodistribution: Feaces (KB tumor-bearing mice; [3]): 12.2 ± 3.54 % IA/g | Biodistribution: Gall Bladder (KB tumor-bearing mice; [3]): 37.5 ± 11.7 % IA/g | Biodistribution: Heart (KB tumor-bearing mice; [3]): 2.75 ± 0.33 % IA/g | Biodistribution: Intestines (KB tumor-bearing mice; [3]): 7.68 ± 1.28 % IA/g | Biodistribution: KB Tumor (KB tumor-bearing mice; [3]): 13.3±1.80 % IA/g | Biodistribution: Kidneys (KB tumor-bearing mice; [3]): 34.5 ± 2.45 % IA/g | Biodistribution: Liver (KB tumor-bearing mice; [3]): 14.3 ± 1.36 % IA/g | Biodistribution: Lung (KB tumor-bearing mice; [3]): 3.37 ± 0.32 % IA/g | Biodistribution: Muscle (KB tumor-bearing mice; [3]): 1.54 ± 0.13 % IA/g | Biodistribution: Salivary glands (KB tumor-bearing mice; [3]): 7.16 ± 0.51 % IA/g | Biodistribution: Spleen (KB tumor-bearing mice; [3]): 8.25 ± 0.96 % IA/g | Biodistribution: Stomach (KB tumor-bearing mice; [3]): 2.20 ± 0.23 % IA/g | Tu-to-blood (KB tumor-bearing mice; [4]): 4.27 ± 0.61 | Tu-to-liver (KB tumor-bearing mice; [4]): 0.94 ± 0.14 | Biodistribution: Kidneys (KB tumor-bearing mice; KB tumor-bearing mice, 30 min p.i., listed as 6R-form): 34.5±2.45 % IA/g | Biodistribution: Liver (KB tumor-bearing mice; KB tumor-bearing mice, 30 min p.i., listed as 6R-tracer): 14.3±1.36 % IA/g | Biodistribution: Blood (KB tumor-bearing mice; [5]): 2.16 ± 0.25 % IA/g | Biodistribution: Bone (KB tumor-bearing mice; [5]): 2.43 ± 0.10 % IA/g | Biodistribution: Feaces (KB tumor-bearing mice; [5]): 17.8 ± 5.09 % IA/g | Biodistribution: Gall Bladder (KB tumor-bearing mice; [5]): 39.0 ± 22.17 % IA/g | Biodistribution: Heart (KB tumor-bearing mice; [5]): 2.38 ± 0.18 % IA/g | Biodistribution: Intestines (KB tumor-bearing mice; [5]): 6.93 ± 1.06 % IA/g | Biodistribution: KB Tumor (KB tumor-bearing mice; [5]): 18.1 ± 2.86 % IA/g | Biodistribution: Kidneys (KB tumor-bearing mice; [5]): 27.3 ± 3.07 % IA/g | Biodistribution: Liver (KB tumor-bearing mice; [5]): 14.1 ± 0.80 % IA/g | Biodistribution: Lung (KB tumor-bearing mice; [5]): 2.80 ± 0.29 % IA/g | Biodistribution: Muscle (KB tumor-bearing mice; [5]): 1.36 ± 0.15 % IA/g | Biodistribution: Salivary glands (KB tumor-bearing mice; [5]): 6.49 ± 0.93 % IA/g | Biodistribution: Spleen (KB tumor-bearing mice; [5]): 8.25 ± 0.88 % IA/g | Biodistribution: Stomach (KB tumor-bearing mice; [5]): 2.35 ± 0.49 % IA/g | Biodistribution: Blood (KB tumor-bearing mice; [6]): 1.52 ± 0.43 % IA/g | Biodistribution: Bone (KB tumor-bearing mice; [6]): 1.51 ± 0.34 % IA/g | Biodistribution: Feaces (KB tumor-bearing mice; [6]): 15.2 ± 1.75 % IA/g | Biodistribution: Gall Bladder (KB tumor-bearing mice; [6]): 26.5 ± 16.6 % IA/g | Biodistribution: Heart (KB tumor-bearing mice; [6]): 1.60 ± 0.46 % IA/g | Biodistribution: Intestines (KB tumor-bearing mice; [6]): 5.23 ± 0.73 % IA/g | Biodistribution: KB Tumor (KB tumor-bearing mice; [6]): 3.41 ± 0.88 % IA/g | Biodistribution: Kidneys (KB tumor-bearing mice; [6]): 4.80 ± 1.94 % IA/g | Biodistribution: Liver (KB tumor-bearing mice; [6]): 9.64 ± 1.55 % IA/g | Biodistribution: Lung (KB tumor-bearing mice; [6]): 1.73 ± 0.43 % IA/g | Biodistribution: Muscle (KB tumor-bearing mice; [6]): 1.05 ± 0.42 % IA/g | Biodistribution: Salivary glands (KB tumor-bearing mice; [6]): 2.61 ± 0.70 % IA/g | Biodistribution: Spleen (KB tumor-bearing mice; [6]): 3.89 ± 0.40 % IA/g | Biodistribution: Stomach (KB tumor-bearing mice; [6]): 2.02 ± 0.52 % IA/g | Tu-to-blood (KB tumor-bearing mice; [7]): 8.47 ± 1.62 | Tu-to-kidney (KB tumor-bearing mice; [7]): 0.67 ± 0.14 | Tu-to-liver (KB tumor-bearing mice; [7]): 1.29 ± 0.18 | Biodistribution: Blood (KB tumor-bearing mice; [8]): 1.92 ± 0.19 % IA/g | Biodistribution: Bone (KB tumor-bearing mice; [8]): 3.53 ± 0.90 % IA/g | Biodistribution: Feaces (KB tumor-bearing mice; [8]): 13.1 ± 6.07 % IA/g | Biodistribution: Gall Bladder (KB tumor-bearing mice; [8]): 56.7 ± 13.2 % IA/g | Biodistribution: Heart (KB tumor-bearing mice; [8]): 2.39 ± 0.47 % IA/g | Biodistribution: Intestines (KB tumor-bearing mice; [8]): 8.01 ± 2.72 % IA/g | Biodistribution: KB Tumor (KB tumor-bearing mice; [8]): 23.9 ± 2.74 % IA/g | Biodistribution: Kidneys (KB tumor-bearing mice; [8]): 29.8 ± 7.46 % IA/g | Biodistribution: Liver (KB tumor-bearing mice; [8]): 16.8 ± 3.58 % IA/g | Biodistribution: Lung (KB tumor-bearing mice; [8]): 2.92 ± 0.53 % IA/g | Biodistribution: Muscle (KB tumor-bearing mice; [8]): 1.48 ± 0.31 % IA/g | Biodistribution: Salivary glands (KB tumor-bearing mice; [8]): 7.31 ± 1.17 % IA/g | Biodistribution: Spleen (KB tumor-bearing mice; [8]): 13.0 ± 4.14 % IA/g | Biodistribution: Stomach (KB tumor-bearing mice; [8]): 2.51 ± 0.42 % IA/g | Tu-to-blood (KB tumor-bearing mice; [9]): 12.5 ± 1.46 | Tu-to-liver (KB tumor-bearing mice; [9]): 1.46 ± 0.26 | Biodistribution: Kidneys (KB tumor-bearing mice; [10]): 29.8±7.46 % IA/g | Biodistribution: Liver (KB tumor-bearing mice; [10]): 16.8±3.58 % IA/g | Biodistribution: Salivary glands (KB tumor-bearing mice; [10]): 7.31±1.17 % IA/g | Biodistribution: KB Tumor (KB tumor-bearing mice; [11]): 23.9±2.74 % IA/g | Biodistribution: Liver (KB tumor-bearing mice; [11]): 16.8±3.58 % IA/g | Biodistribution: Spleen (KB tumor-bearing mice; [11]): 13.0±4.14 % IA/g | Specificity of tumor binding (KB tumor-bearing mice; blocking by pre-injection of folic acid): 85% | factor of increase of tumor-to-kidney ratio (KB tumor-bearing mice; from 30 min p.i. to 90 min p.i.): 2.1 | uptake into RT16 cells (in words) (RT16 (FR-α)): higher uptake | PET/CT: KB tumor xenograft uptake (KB tumor xenografts; already 1 h p.i.): High KB tumor xenograft uptake | PET/CT: blocking studies, uptake in all FR-positive tissues (KB tumor xenografts; folic acid injected 10 minutes prior to radiotracer): remarkably reduced uptake | logD7.4 [1]: −4.6 ± 0.1 | uptake into D4 cells (in words) (D4 (FR-β); D4 (FR-β) cells): very low | internalized fraction (D4 (FR-β); D4 cells, 1 h incubation): about 1% | uptake (D4 (FR-β); D4 cells, 1 h incubation): 3% | internalized activity (FR-positive KB cells; 37° C.): around 8% | cell uptake (% of total added radioactivity) (FR-positive KB cells; 3 h incubation at 37° C., calculated per 0.3 mg of protein): about 60% | in vivo stability [2]: Only intact parent compounds were found

CN1c2c(nc(N)[nH]c2=O)NCC1CNc1ccc(C(=O)N[C@@H](CCC(=O)O)C(=O)O)c([18F])n1 (stereo partly shown) [3′-aza-2′-[^18]fluoro-5-methyltetrahydrofolate]
fold higher selectivity for FR-alpha than the respective oxidized folic acid derivative (FR-alpha): 50 fold

Nc1nc2ncc(CNc3ccc(C(=O)N[C@H](CCC(=O)NC[C@H](N)C(=O)N[C@@H](CC(=O)O)C(=O)N[C@@H](CS)C(=O)O)C(=O)O)cc3)nc2c(=O)[nH]1 [EC20]
Kd (Folate Receptor): 12 nM
